Here are results for 27 molecules from patent US11993573B2, “Chromane-substituted, tetrahydroquinoline-substituted and thiochromane-substituted heteroarotinoids as anti-cancer agents” (THE BOARD OF REGENTS FOR OKLAHOMA STATE UNIVERSITY, priority 2018, dated 2024).

Molecules are shown by their SMILES. Like-named read-outs stand apart in the source and are kept apart here.

As usually defined, the IC50 is the point on the concentration scale where inhibition reaches its midpoint. A lower IC50 goes with greater potency in that assay.

The test concerns human ovarian cancer cell line A2780. As to the kind of experiment: Growth inhibition assay (CellTiter 96 Non-Rad Cell Proliferation Assay). The test is classed as cell-based. The conditions noted are these: for efficacy compared with SHetA2 / IC50 compared with SHetA2: comparison in words; for IC50 compared with SHetA2: 'exceeded' = lower IC50 in Table 1. As for the experimental part: To illustrate the general activity of the compounds inhibiting growth of human […] ovarian cancer cells, selected compounds were synthesized and evaluated. The compounds were dissolved in DMSO at a concentration of 0.01 M. The human ovarian cancer cell line A2780 was plated in 96-well tissue culture dishes at a concentration of 3000 cells per well in RPMI medium supplemented with 10% fetal bovine serum and a mixture of antibiotics and antimycotics. The next day, the cultures were treated in triplicate with compound concentrations ranging from 2 μM to 8 μM increments. For compound 12, additional experiments were performed with concentrations of 10 μM and a series of two-fold dilutions to 156 nM. Control cultures were treated with DMSO solvent only. After 72 h of incubation, the […] 96® Non-Rad Cell Proliferation Assay (Promega) was used to quantify the remaining metabolically living cells. After subtracting blank values, the optical density (OD) readouts of the assay for the treated cultures were normalized with the average OD of the control cultures. For each compound, the experiment was repeated at least once, resulting in a minimum of 6 dose-response curves. For SHetA2, 24 response curves were available for statistical fitting parameters. A custom program was written in GNU Octave, a free software compatible with Matlab, to fit the dose-response curves with a four-parameter sigmoid function, extracting the IC50 and efficacy (the maximal % growth inhibition) parameters.
To illustrate the useful biological activity of these chroman-substituted and tetrahydroquinoline-substituted heteroarotinoids, the compounds were screened against human […] ovarian cancer cells.

[1] abbreviates: Homo sapiens, A2780, 72 h, Table 1, chroman-containing series.
[2] abbreviates: Homo sapiens, A2780, 72 h, Table 1, maximal % growth inhibition, A2780, 72 h, read-out: Efficacy.
Where [3] appears, read: Homo sapiens, A2780, Table 3, 14 series (thiochroman), A2780.
Setting [4] is: Homo sapiens, A2780, Table 3, 14 series, A2780, read-out: % Efficacy.

On to `CC1(C)CCOc2ccc(NC(=S)Nc3ccc([N+](=O)[O-])cc3)cc21` [Compound 4a, 1-(4-Nitrophenyl)-3-(4,4-dimethylchroman-6-yl)thiourea], for which the half-inhibitory concentration (IC50) under setting [1] is 6.4 µM. The Emax under setting [2] was 19%.

As for `COc1ccc(CNC(=S)Nc2ccc3c(c2)C(C)(C)CC(C)(C)S3)cc1` [Compound 14o, 1-(4-Methoxybenzyl)-3-(2,2,4,4-tetramethylthiochroman-6-yl)thiourea], the IC50 under setting [3] came to 3.26 ± 0.43 µM. Besides, the Emax under setting [4] was determined as 89.6 ± 0.9%. Besides, under “A2780”, the “efficacy compared with SHetA2” value was “exceeded that of SHetA2 in efficacy”.

For `CC1(C)CC(C)(C)c2cc(NC(=S)NCc3ccc(Cl)cc3)ccc2S1` [Compound 14l, 1-(4-Chlorobenzyl)-3-(2,2,4,4-tetramethylthiochroman-6-yl)thiourea], the concentration for half-maximal inhibition (IC50) under setting [3] worked out at 2.98 ± 0.44 µM. Further, the Emax under setting [4] worked out at 89.4 ± 2.8%. In addition, where the note is “A2780”, the “efficacy compared with SHetA2” value is “exceeded that of SHetA2 in efficacy”.

Turning to `CC1(C)CC(C)(C)c2cc(NC(=S)Nc3ccc(Cl)cc3)ccc2S1` [Compound 14d, 1-(4-Chlorophenyl)-3-(2,2,4,4-tetramethylthiochroman-6-yl)thiourea], 3.17 ± 0.25 µM corresponded to half-maximal inhibition under setting [3] (IC50). For the same molecule, the Emax under setting [4] worked out at 91.9 ± 0.5%. Moreover, under “A2780”, the “efficacy compared with SHetA2” value is listed as “exceeded that of SHetA2 in efficacy”.

In the case of `CC1(C)CC(C)(C)c2cc(NC(=S)NNC(=O)c3ccccc3)ccc2S1` [Compound 14r, 2-Benzoyl-N-(2,2,4,4-tetramethylthiochroman-6-yl)hydrazine-1-carbothioamide], the IC50 under setting [3] came to 0.82 ± 0.21 µM. Besides, the Emax under setting [4] was 67.9 ± 2.6%.

For `CC1(C)CCSc2ccc(NC(=S)Nc3ccc([N+](=O)[O-])cc3)cc21` [Compound 14v, 1-(4,4-dimethyl-6-yl)-3-(4-nitrophenyl)thiourea], the midpoint of inhibition under setting [3], the IC50, lay at 4.01 ± 0.19 µM. Also, under setting [4], the Emax stood at 93.5 ± 1.7%.

For `COc1cccc(NC(=S)Nc2ccc3c(c2)C(C)(C)CC(C)(C)S3)c1` [Compound 14i, 1-(3-Methoxyphenyl)-3-(2,2,4,4-tetramethylthiochroman-6-yl)thiourea], under setting [3], inhibition was half-maximal at 3.04 ± 0.52 µM (IC50). Moreover, under setting [4], the Emax was 38.8 ± 0.04%.

On to `CCC1(CC)CC(CC)(CC)c2cc(NC(=O)Nc3ccc([N+](=O)[O-])cc3)ccc2O1` [Compound 8b, 1-(4-Nitrophenyl)-3-(2,2,4,4-tetraethylchroman-6-yl)urea], for which it took 2.09 µM to reach half-maximal inhibition under setting [1] (IC50). Further, under setting [2], the Emax worked out at 91.4%. Also, where the note is “A2780”, the “efficacy compared with SHetA2” value is on record as “exceeded the efficacy of SHetA2” and the “IC50 compared with SHetA2” value is on record as “exceeded”.

`CC1(C)CC(C)(C)c2cc(NC(=O)Nc3ccc(C#N)cc3)ccc2S1` [Compound 14c, 1-(4-Cyanophenyl)-3-(2,2,4,4-tetramethylthiochroman-6-yl)urea] displayed a half-inhibitory concentration (IC50) under setting [3] of 3.93 ± 0.03 µM. For the same molecule, the Emax under setting [4] was found to be 93.3 ± 0.1%. For the same molecule, the “efficacy compared with SHetA2” value (A2780) is reported as “exceeded that of SHetA2 in efficacy”.

`CCC1(CC)CC(C)(C)Oc2ccc(NC(=S)Nc3ccc([N+](=O)[O-])cc3)cc21` [Compound 7a, 1-(4,4-Diethyl-2,2-dimethylchroman-6-yl)-3-(4-nitrophenyl)thiourea]: the half-inhibitory concentration (IC50) under setting [1] was 3.69 µM. In addition, the Emax under setting [2] was 95.7%. The “efficacy compared with SHetA2” value (A2780) is recorded as “exceeded the efficacy of SHetA2”.

`CN1c2ccc(NC(=S)Nc3ccc(C(F)(F)F)cc3)cc2C(C)(C)C(=O)C1(C)C` [Compound 11d] had an IC50 (Table 2, tetrahydroquinoline-containing members, A2780, 72 h) of 3.9 µM. Moreover, the Efficacy (Table 2, maximal % growth inhibition, A2780, 72 h) is recorded as 90.8 (±2.0) %.

Under setting [3], `CC1(C)CC(C)(C)c2cc(NC(=S)NNC(=O)c3cc(C(F)(F)F)cc(C(F)(F)F)c3)ccc2S1` [Compound 14u, 2-(3,5-Bis(trifluoromethyl)benzoyl)-N-(2,2,4,4-tetramethylthiochroman-6-yl)hydrazine-1-carbothioamide] returned a concentration for half-maximal inhibition (IC50) of 4 ± 0.12 µM. Also, the Emax under setting [4] is 61.4 ± 2.9%.

With `CCC1(CC)CC(CC)(CC)c2cc(NC(=S)Nc3ccc([N+](=O)[O-])cc3)ccc2O1` [Compound 8a, 1-(4-Nitrophenyl)-3-(2,2,4,4-tetraethylchroman-6-yl)thiourea], it took 4.6 µM to reach half-maximal inhibition under setting [1] (IC50). For the same molecule, the Emax under setting [2] worked out at 94%. Moreover, where the note is “A2780”, the “efficacy compared with SHetA2” value is reported as “exceeded the efficacy of SHetA2”.

On to `CC1(C)CC(C)(C)c2cc(NC(=S)NNC(=O)c3ccc([N+](=O)[O-])cc3)ccc2S1` [Compound 14s, 2-(4-Nitrobenzoyl)-N-(2,2,4,4-tetramethylthiochroman-6-yl)hydrazine-1-carbothioamide], for which the IC50 under setting [3] was determined as 3.15 ± 0.19 µM. Besides, the Emax under setting [4] turned out to be 43.3 ± 2.9%.

Molecule `CC1(C)CC(C)(C)c2cc(NC(=S)Nc3ccc([N+](=O)[O-])cc3)ccc2O1` [Compound 2a, 1-(4-Nitrophenyl)-3-(2,2,4,4-tetramethylchroman-6-yl)thiourea] returned an IC50 under setting [1] of 6.97 µM. The Emax under setting [2] was found to be 87%. Also, the “efficacy compared with SHetA2” value (A2780) was “exceeded the efficacy of SHetA2”.

Consider `CC1(C)CC(C)(C)c2cc(NC(=S)Nc3ccc(OC(F)(F)F)cc3)ccc2S1` [Compound 14f, 1-(2,2,4,4-Tetramethylthiochroman-6-yl)-3-(4-(trifluoromethoxy)phenyl)thiourea], for which the IC50 under setting [3] came out at 3.51 ± 0.07 µM. The Emax under setting [4] came to 95.3 ± 0.4%. Where the note is “A2780”, the “efficacy compared with SHetA2” value is listed as “exceeded that of SHetA2 in efficacy”.

Take `CC1(C)CC(C)(C)c2cc(NC(=O)Nc3ccc(OC(F)(F)F)cc3)ccc2S1` [Compound 14b, 1-(2,2,4,4-Tetramethylthiochroman-6-yl)-3-(4-(trifluoromethoxy)phenyl)urea]: 1.86 ± 0.09 µM corresponded to half-maximal inhibition under setting [3] (IC50). Under setting [4], the Emax stood at 95.6 ± 0.4%. Also, for the setting “A2780”, the “efficacy compared with SHetA2” value is recorded as “exceeded that of SHetA2 in efficacy”.

Turning to `CC1(C)CCOc2ccc(NC(=O)Nc3ccc([N+](=O)[O-])cc3)cc21` [Compound 5a, 1-(4-Nitrophenyl)-3-(4,4-dimethylchroman-6-yl)urea], it took 6.7 µM to reach half-maximal inhibition under setting [1] (IC50). Besides, the Emax under setting [2] stood at 74%.

Under setting [1], `CCOC(=O)c1ccc(NC(=S)Nc2ccc3c(c2)C(C)(C)CC(C)(C)O3)cc1` [Compound 2b, Ethyl 4-(3-(2,2,4,4-Tetramethylchroman-6-yl)thioureido)benzoate] showed a half-maximal inhibitory concentration (IC50) of 4.3 µM. The Emax under setting [2] worked out at 26%.

For the molecule `CC1(C)CC(C)(C)c2cc(NC(=S)NCc3ccc(C(F)(F)F)cc3)ccc2S1` [Compound 14n, 1-(2,2,4,4-Tetramethylthiochroman-6-yl)-3-(4-(trifluoromethyl)benzyl)thiourea], the IC50 under setting [3] was found to be 4.82 ± 0.41 µM. Moreover, under setting [4], the Emax is 95.3 ± 0.3%. Besides, for the setting “A2780”, the “efficacy compared with SHetA2” value was “exceeded that of SHetA2 in efficacy”.

Take `CC1(C)CC(C)(C)c2cc(NC(=S)NCCc3ccccc3)ccc2S1` [Compound 14k, 1-Phenethyl-3-(2,2,4,4-tetramethylthiochroman-6-yl)thiourea]: the midpoint of inhibition under setting [3], the IC50, lay at 3.19 ± 0.47 µM. Further, the Emax under setting [4] turned out to be 88.2 ± 0.3%. In addition, the “efficacy compared with SHetA2” value (A2780) is reported as “exceeded that of SHetA2 in efficacy”.

For the molecule `CC1(C)CC(C)(C)c2cc(NC(=S)NCc3ccccc3)ccc2S1` [Compound 14j, 1-Benzyl-3-(2,2,4,4-tetramethylthiochroman-6-yl)thiourea], under setting [3], half-maximal inhibition (IC50) required 3.03 ± 0.47 µM. Also, the Emax under setting [4] was determined as 85.6 ± 0.6%. The “efficacy compared with SHetA2” value (A2780) is reported as “exceeded that of SHetA2 in efficacy”.

`CCC1(CC)CC(C)(C)Oc2ccc(NC(=O)Nc3ccc([N+](=O)[O-])cc3)cc21` [Compound 7c, 1-(4,4-Diethyl-2,2-dimethylchroman-6-yl)-3-(4-nitrophenyl)urea]: the IC50 under setting [1] is 2.05 µM. Besides, the Emax under setting [2] amounted to 93.6%. Besides, where the note is “A2780”, the “efficacy compared with SHetA2” value is recorded as “exceeded the efficacy of SHetA2” and the “IC50 compared with SHetA2” value is recorded as “exceeded”.

Under setting [3], `CC1(C)CC(C)(C)c2cc(NC(=O)Nc3ccc(C(F)(F)F)cc3)ccc2S1` [Compound 14a, 1-(2,2,4,4-Tetramethylthiochroman-6-yl)-3-(4-(trifluoromethyl)phenyl)urea] gave a concentration for half-maximal inhibition (IC50) of 3.79 ± 0.05 µM. Besides, under setting [4], the Emax came out at 93.3 ± 0.1%. The “efficacy compared with SHetA2” value (A2780) is recorded as “exceeded that of SHetA2 in efficacy”.

Consider `CN1c2ccc(NC(=O)Nc3ccc(N)cc3)cc2C(C)(C)C(=O)C1(C)C` [Compound 11g, 1-(4-Aminophenyl)-3-(1,2,2,4,4-pentamethyl-3-oxo-1,2,3,4-tetrahydroquinolin-6-yl)urea], for which the IC50 (Homo sapiens, A2780, 72 h, Table 2, tetrahydroquinoline-containing members) was 7.7 µM. The Emax (Homo sapiens, A2780, 72 h, Table 2, maximal % growth inhibition, A2780, 72 h, read-out: Efficacy) turned out to be 24%.

Under setting [3], `CC1(C)CC(C)(C)c2cc(NC(=S)NCc3ccc(O)cc3)ccc2S1` [Compound 14p, 1-(4-Hydroxybenzyl)-3-(2,2,4,4-tetramethylthiochroman-6-yl)thiourea] had a half-inhibitory concentration (IC50) of 3.23 ± 0.49 µM. Also, the Emax under setting [4] is 56.8 ± 3.3%.

Take `CC1(C)CC(C)(C)c2cc(NC(=S)Nc3ccc(C(N)=O)cc3)ccc2S1` [Compound 14g, 4-(3-(2,2,4,4-Tetramethylthiochroman-6-yl)thioureido)benzamide]: 3.53 ± 0.12 µM corresponded to half-maximal inhibition under setting [3] (IC50). The Emax under setting [4] was found to be 64.2 ± 1.8%.
